Measured values: ChEMBL document CHEMBL6078688, “Discovery of Novel MyD88 Inhibitor A5S to Alleviate Acute Lung Injury with Favorable Drug-like Properties” (J Med Chem, 2024)
Calls of active or inactive are those of the source. The calls are words filed in the database; no cut-off is given here.

Experiments:
THP-1 = test: Anti-inflammatory activity in LPS-induced human THP-1 cells assessed as inhibition of IL-6 production at 10 uM by ELISA relative to control; type: functional
J774.A1 [1] = test: Cytotoxicity against mouse J774.A1 cells at 10 uM by MTT assay; type: toxicity, cell-based; settings: j774.a1, 10 µM
[2] = target: TLR4-MyD88 (Mus musculus) (UniProt Q9QUK6+P22366); test: Inhibition of MYD88/TLR4 protein-protein interaction in LPS-induced mouse J774.A1 cells at 20 uM incubated for 2 hrs by coimmunoprecipitation analysis; type: cell-based
Sequence of TLR4-MyD88 (Mus musculus) (P22366 whole entry, looked up): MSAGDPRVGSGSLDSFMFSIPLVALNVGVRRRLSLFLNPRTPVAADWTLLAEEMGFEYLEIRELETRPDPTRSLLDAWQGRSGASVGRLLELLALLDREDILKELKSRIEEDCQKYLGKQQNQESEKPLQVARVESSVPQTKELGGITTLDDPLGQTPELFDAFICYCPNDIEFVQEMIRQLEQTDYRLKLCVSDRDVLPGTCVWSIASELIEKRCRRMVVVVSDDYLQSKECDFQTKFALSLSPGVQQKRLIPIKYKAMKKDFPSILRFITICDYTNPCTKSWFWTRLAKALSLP
Sequence of TLR4-MyD88 (Mus musculus) (Q9QUK6 whole entry, looked up): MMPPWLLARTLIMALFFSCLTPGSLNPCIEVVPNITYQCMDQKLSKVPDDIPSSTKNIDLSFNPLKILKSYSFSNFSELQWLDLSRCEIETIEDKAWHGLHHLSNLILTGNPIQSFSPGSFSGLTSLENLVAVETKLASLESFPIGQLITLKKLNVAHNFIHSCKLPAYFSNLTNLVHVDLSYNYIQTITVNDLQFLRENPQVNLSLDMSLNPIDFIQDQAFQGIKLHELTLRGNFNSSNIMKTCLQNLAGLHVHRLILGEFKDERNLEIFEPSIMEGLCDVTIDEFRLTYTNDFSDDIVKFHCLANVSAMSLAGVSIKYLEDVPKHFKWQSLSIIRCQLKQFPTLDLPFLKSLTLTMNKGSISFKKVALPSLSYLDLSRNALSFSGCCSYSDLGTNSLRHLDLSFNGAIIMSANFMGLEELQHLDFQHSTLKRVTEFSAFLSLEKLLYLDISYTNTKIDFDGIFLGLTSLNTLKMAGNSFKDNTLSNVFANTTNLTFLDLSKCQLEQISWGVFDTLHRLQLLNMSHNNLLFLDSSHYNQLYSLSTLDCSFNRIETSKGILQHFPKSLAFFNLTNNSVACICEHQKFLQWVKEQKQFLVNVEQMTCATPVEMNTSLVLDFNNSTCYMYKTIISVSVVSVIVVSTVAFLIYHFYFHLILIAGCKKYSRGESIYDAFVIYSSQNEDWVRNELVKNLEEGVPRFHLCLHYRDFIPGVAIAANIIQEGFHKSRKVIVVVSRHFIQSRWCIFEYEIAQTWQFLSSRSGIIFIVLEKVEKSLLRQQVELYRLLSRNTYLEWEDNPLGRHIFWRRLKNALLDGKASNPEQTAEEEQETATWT

J774.A1 [3] = test: Anti-inflammatory activity in LPS-induced mouse J774.A1 cells assessed as inhibition of IL-6 production by ELISA; type: functional, cell-based
J774.A1 [4] = test: Anti-inflammatory activity in LPS-induced mouse J774.A1 cells assessed as inhibition of TNF-alpha production by ELISA; type: functional, cell-based
J774.A1 [5] = test: Inhibition of NF-kappaB signalling pathway in LPS-induced mouse J774.A1 cells assessed as upregulation of IkappaB-alpha expression by Western blotting analysis; type: cell-based
J774.A1 [6] = test: Inhibition of NF-kappaB signalling pathway in LPS-induced mouse J774.A1 cells assessed as downregulation of p65 phosphorylation by Western blotting analysis; type: cell-based
J774.A1 [7] = test: Cytotoxicity against mouse J774.A1 cells at 3 to 12 uM by MTT assay; type: toxicity, cell-based; settings: j774.a1, 12 µM, dose 3-12 µM
[8] = target: Toll-like receptor 4/Ly96 (Mus musculus) (UniProt Q9QUK6+Q9JHF9); test: Inhibition of MD2/TLR4 protein-protein interaction in LPS-induced mouse J774.A1 cells at 20 uM incubated for 2 hrs by coimmunoprecipitation analysis; type: cell-based
Mus musculus [9] = test: Antiinflammatory activity against LPS induced acute lung injury C57BL/6 mouse model assessed as reduction in of leukocytes in alveolar region at 20 mg/kg,po administrated with compound for 30 mins followed by LPS treatment and measured after 6 hrs by immunohistochemical staining based analysis; type: functional, organism-based
Mus musculus [10] = test: Antiinflammatory activity against LPS induced acute lung injury C57BL/6 mouse model assessed as reduction in histopathological change in lung at 20 mg/kg,po administrated with compound for 30 mins followed by LPS treatment and measured after 6 hrs by H and E staining based analysis; type: functional, organism-based; settings: time 6.5 hrs
[11] = Oral bioavailability in Sprague-Dawley rat at 50 mg/kg administration measured upto 24 hrs by LC-MS/MS analysis; type: ADME, organism-based; settings: in vivo
[12] = Stability of compound in enzyme free simulated gastric fluid measured upto 12 hrs; type: physicochemical; settings: simulated gi fluid
[13] = Cmax in Sprague-Dawley rat at 50 mg/kg,po administration measured upto 24 hrs by LC-MS/MS analysis; type: ADME, organism-based; settings: in vivo
[14] = Tmax in Sprague-Dawley rat at 1 mg/kg,iv administration measured upto 24 hrs by LC-MS/MS analysis; type: ADME, organism-based; settings: in vivo
[15] = Stability of compound in simulated gastric fluid measured upto 12 hrs; type: physicochemical; settings: simulated gi fluid
[16] = Cmax in Sprague-Dawley rat at 1 mg/kg,iv administration measured upto 24 hrs by LC-MS/MS analysis; type: ADME, organism-based; settings: in vivo
[17] = Half life in Sprague-Dawley rat at 1 mg/kg,iv administration measured upto 24 hrs by LC-MS/MS analysis; type: ADME, organism-based; settings: in vivo
[18] = Stability of compound in enzyme free simulated intestinal fluid measured upto 12 hrs; type: physicochemical; settings: simulated gi fluid
[19] = AUC (0 to infinity) in Sprague-Dawley rat at 1 mg/kg,iv administration measured upto 24 hrs by LC-MS/MS analysis; type: ADME, organism-based; settings: in vivo
[20] = AUC (0 to t) in Sprague-Dawley rat at 1 mg/kg,iv administration measured upto 24 hrs by LC-MS/MS analysis; type: ADME, organism-based; settings: in vivo
[21] = AUC (0 to t) in Sprague-Dawley rat at 50 mg/kg,po administration measured upto 24 hrs by LC-MS/MS analysis; type: ADME, organism-based; settings: in vivo
[22] = Stability of compound in rat serum measured after 6 hrs; type: ADME, cell-free
[23] = Tmax in Sprague-Dawley rat at 50 mg/kg,po administration measured upto 24 hrs by LC-MS/MS analysis; type: ADME, organism-based; settings: in vivo
[24] = Stability of compound in simulated intestinal fluid measured upto 12 hrs; type: physicochemical; settings: simulated gi fluid
[25] = Drug concentration in Sprague-Dawley rat serum at 15 mg/kg,iv administration measured upto 24 hrs by LC-MS/MS analysis; type: ADME, organism-based; settings: read-out: Ct
[26] = target: Myeloid differentiation primary response protein MyD88 (Homo sapiens, UniProt Q99836); test: Binding affinity to MYD88 (unknown origin) assessed as dissociation constant by biolayer interferometry
Sequence of Myeloid differentiation primary response protein MyD88 (Q99836 whole entry): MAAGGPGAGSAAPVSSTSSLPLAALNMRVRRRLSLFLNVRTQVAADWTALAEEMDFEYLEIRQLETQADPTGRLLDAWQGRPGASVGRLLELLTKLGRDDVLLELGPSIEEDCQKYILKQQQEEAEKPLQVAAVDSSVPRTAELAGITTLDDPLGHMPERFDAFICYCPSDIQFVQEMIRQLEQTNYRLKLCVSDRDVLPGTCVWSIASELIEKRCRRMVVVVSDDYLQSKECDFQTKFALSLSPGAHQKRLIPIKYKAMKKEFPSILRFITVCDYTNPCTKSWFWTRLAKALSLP

Peritoneal macrophage = test: Antiinflammatory activity in LPS-induced mouse Peritoneal macrophage cells assessed as inhibition of IFN-beta mRNA level at 1.25 to 5 uM by RT-PCR analysis; type: functional, cell-based; settings: dose 1.25-5 µM
J774.A1 [27] = test: Anti-inflammatory activity in LPS-induced mouse J774.A1 cells assessed as inhibition of IL-6 production at 10 uM by ELISA; type: functional, cell-based
J774.A1 [28] = test: Anti-inflammatory activity in LPS-induced mouse J774.A1 cells assessed as inhibition of TNF-alpha production at 10 uM by ELISA; type: functional, cell-based

SMILES	inhibition at 10 µM (THP-1)	Activity (J774.A1 [1])	other results
CC(c1ccccc1)C(O)CN1CCN(CC(O)COc2ccc(Br)cc2)CC1 (stereo not given)	47.9%	Non-toxic	–
O[C@@H](COc1ccc(Br)cc1)CN1CCN(Cc2cc3ccccc3[nH]2)CC1	–	–	inhibition [2]: Active; IC50 (J774.A1 [3]): 820 nM; IC50 (J774.A1 [4]): 3.75 µM; inhibition (J774.A1 [5]): Active; inhibition (J774.A1 [6]): Active; Activity (J774.A1 [7]): Non-toxic; inhibition [8]: inactive
CC(c1ccccc1)C(O)CN1CCN(CC(O)COc2ccc(C(C)(C)C)cc2)CC1 (stereo not given)	46.4%	Toxic	–
COc1ccc(OCC(O)CN2CCN(Cc3cc4ccccc4[nH]3)CC2)cc1 (stereo not given)	69%	Non-toxic	–
C[C@@H]1C[C@H]2[C@@H]3CCC4=CC(=O)C=C[C@]4(C)[C@@]3(F)[C@@H](O)C[C@]2(C)[C@@]1(O)C(=O)CO	–	–	Activity (Mus musculus [9]): Active; Activity (Mus musculus [10]): Active
Cc1ccccc1OCC(O)CN1CCN(CC(O)C(C)c2ccccc2)CC1 (stereo not given)	21.5%	Non-toxic	–
CC(c1cccc(F)c1)C(O)CN1CCN(CC(O)COc2ccc(Cl)cc2)CC1 (stereo not given)	55.5%	Non-toxic	–
OC(COc1ccc(Cl)cc1)CN1CCN(Cc2cc3ccccc3[nH]2)CC1 (stereo not given)	85.3%	Non-toxic	–
OC(COc1ccccc1)CN1CCN(Cc2cc3ccccc3[nH]2)CC1 (stereo not given)	74%	Non-toxic	–
COc1ccc(OCC(O)CN2CCN(CC(O)C(C)c3ccccc3)CC2)cc1 (stereo not given)	46.8%	Non-toxic	–
CC(c1ccccc1)C(O)CN1CCN(CC(O)COc2ccc(Cl)cc2)CC1 (stereo not given)	14%	Non-toxic	–
OC(COc1ccc(F)cc1)CN1CCN(Cc2cc3ccccc3[nH]2)CC1 (stereo not given)	76.3%	Non-toxic	–
CC(c1cccc(F)c1)C(O)CN1CCN(CC(O)COc2ccc(F)cc2)CC1 (stereo not given)	42.1%	Non-toxic	–
CC(c1ccccc1)C(O)CN1CCN(CC(O)COCc2ccccc2)CC1 (stereo not given)	20%	Non-toxic	–
CC(c1ccccc1)C(O)CN1CCN(CC(O)COc2ccccc2)CC1 (stereo not given)	30.5%	Non-toxic	–
COc1ccc(-c2csc(NC(=O)CCN3CCN(Cc4cccc([N+](=O)[O-])c4)CC3)n2)cc1OC	–	–	bioavailability [11]: 0.13%; Stability [12]: Stable; Cmax [13]: 3.99 ng/mL; Tmax [14]: 4.8 min; Stability [15]: Stable; Cmax [16]: 297 ng/mL; half-life [17]: 4.8 min; Stability [18]: Stable; AUC(0-inf) [19]: 79.9 ng·h/mL; AUC(0-t) at 24 h [20]: 79.1 ng·h/mL; AUC(0-t) at 24 h [21]: 4.38 ng·h/mL; Stability [22]: Unstable; Tmax [23]: 15 min; Stability [24]: Stable
CC(C)(C)c1ccc(OCC(O)CN2CCN(Cc3cc4ccccc4[nH]3)CC2)cc1 (stereo not given)	5.83%	Toxic	–

SMILES	inhibition at 10 µM (THP-1)	Activity (J774.A1 [1])	other results
COc1ccccc1OCC(O)CN1CCN(CC(O)C(C)c2cccc(F)c2)CC1 (stereo not given)	52.8%	Non-toxic	–
O=C(CCN1CCN(Cc2ccccc2)CC1)Nc1nc(-c2ccccc2)cs1	–	–	concentration at 24 h [25]: 1190 ng/mL
OC(COc1ccc(Br)cc1)CN1CCN(Cc2cc3ccccc3[nH]2)CC1 (stereo not given)	84.2%	Non-toxic	Kd [26]: 84.8 µM
CC(c1cccc(F)c1)C(O)CN1CCN(CC(O)COCc2ccccc2)CC1 (stereo not given)	30.4%	Non-toxic	–
COc1ccccc1OCC(O)CN1CCN(Cc2cc3ccccc3[nH]2)CC1 (stereo not given)	62.6%	Non-toxic	–
COc1ccc(C(=O)/C=C/c2cccc(OC)c2OC)cc1	–	–	Activity (Peritoneal macrophage): Active
Cc1ccccc1OCC(O)CN1CCN(Cc2cc3ccccc3[nH]2)CC1 (stereo not given)	75.4%	Non-toxic	–
OC(COCc1ccccc1)CN1CCN(Cc2cc3ccccc3[nH]2)CC1 (stereo not given)	72.7%	Non-toxic	–
CC(c1cccc(F)c1)C(O)CN1CCN(CC(O)COc2ccc(C(C)(C)C)cc2)CC1 (stereo not given)	44.3%	Non-toxic	–
CC(c1cccc(F)c1)C(O)CN1CCN(CC(O)COc2ccccc2)CC1 (stereo not given)	31.8%	Non-toxic	–
Cc1c(CN2CCN(C3CCNC3)CC2)[nH]c2ccc(F)cc12 (stereo not given)	71.7%	Non-toxic	inhibition (J774.A1 [27]): Active; Kd [26]: 276 µM; inhibition (J774.A1 [28]): Active
CC(c1ccccc1)C(O)CN1CCN(CC(O)COc2ccc(F)cc2)CC1 (stereo not given)	4.5%	Non-toxic	–
COc1ccccc1OCC(O)CN1CCN(CC(O)C(C)c2ccccc2)CC1 (stereo not given)	27.8%	Non-toxic	–
COc1ccc(OCC(O)CN2CCN(CC(O)C(C)c3cccc(F)c3)CC2)cc1 (stereo not given)	37.8%	Non-toxic	–
Cc1ccccc1OCC(O)CN1CCN(CC(O)C(C)c2cccc(F)c2)CC1 (stereo not given)	46.2%	Non-toxic	–
CC(c1cccc(F)c1)C(O)CN1CCN(CC(O)COc2ccc(Br)cc2)CC1 (stereo not given)	43.1%	Non-toxic	–
